From patent US12503440B2, “Nitroxoline derivative, preparation method therefor, and use thereof” (Jiangsu Yahong Meditech Co., Ltd., priority 2020, dated 2025) come the findings set out here.

In brackets after ≈: the same amount, converted by molar mass.

By MIC50 is commonly meant an inhibitory concentration at the 50% level, which refers to growth in some studies and to a panel of isolates in others. For orientation: MIC90 means an inhibitory concentration at the 90% level, which refers to growth in some studies and to a panel of isolates in others. What is called MIC is the smallest concentration in the dilution series that meets the test's criterion for growth inhibition. High values mean a need for much substance, low ones inhibition by little substance. In general, IC50 refers to the concentration needed to halve the response being measured. Read a high IC50 as lower potency.

Format in all cases: cell-based
For one assay, the system named is Acinetobacter baumannii. Description: Bacteriostatic activity, micro broth dilution MIC (CLSI). Conditions: 20 hours. On the procedure:
(§1) The purpose of this test is to determine the bacteriostatic activity of the compounds of the present invention against a representative panel of strains (Gram-negative bacteria: […] ATCC 25922, Acinetobacter baumannii ATCC 19606; Gram-positive bacteria: Staphylococcus aureus ATCC29213). Bacteriostatic activity was determined by minimum inhibitory concentration (MIC), MIC50, MIC90. This test was entrusted to Shanghai Junj Lab Co., Ltd. Except for the test drugs, all other test materials were provided by Shanghai Junj Lab Co., Ltd.
(§2) The tested bacteria were several strains of clinically isolated carbapenem-resistant Escherichia coli, several strains of carbapenem-resistant Acinetobacter baumannii, several strains of methicillin-resistant Staphylococcus aureus, and several strains of sensitive Staphylococcus aureus. Duplicate strains isolated from the same patient were eliminated. There were also three quality control strains Escherichia coli ATCC 25922, Acinetobacter baumannii ATCC 19606, and Staphylococcus aureus ATCC 29213. The activity test of each compound was carried out on one or more strains of each of the above test bacteria.
(§3) According to the recommendations of relevant documents of the American Clinical and Laboratory Standards Institute (CLSI), the micro broth dilution method was used to determine the MIC of the compounds of the present invention against clinically isolated strains. The culture solution free of drug was used as the test bacteria positive control, the culture solution free of bacterial solution was used as the drug negative control, and the culture solution free of drug solution and bacterial solution was used as the blank control. • 4.1 Formulation of antibacterial drug: All the compounds of the present invention were dissolved in DMSO. The drug concentration range was 128 mg/L-0.06 mg/L. Specific method: The compounds of the present invention were successively diluted by 1:1 with DMSO to obtain an intermediate series with a range of 25600 mg/L-12.5 mg/L. 30 μL of solution from each tube of the intermediate series of each compound was added to a 3 mL/tube series of single broth tube, and mixed well to obtain an intermediate series with a range of 256 mg/L to 0.125 mg/L. The diluted series solution was added to the drug susceptibility plate line by line, 50 μL of solution per well. All ranges became investigated ranges after being mixed with an equal volume of bacterial solution: 128-0.06 mg/L. • 4.2 Culture medium: The drug susceptibility test used cation adjusted Mueller-Hinton broth (CAMHB). • 4.3 Amount of inoculum: The test bacteria cultured overnight were adjusted to 0.5 McFarland turbidity by the direct colony suspension method, and diluted 100 folds, the final inoculum amount was 10^5 CFU/mL. • 4.4 Culture conditions: The test bacteria were cultured at 35±2° C. for 20 hours in air. 5. Interpretation and Judgment of Results
(§4) The drug susceptibility test results were interpretated by reference to CLSI 2019 edition M100 29th edition criteria.
(§5) The results of drug susceptibility test were statistically analyzed by WHONET version 5.6 software.
(§6) The culture solution free of bacterial solution was used as the drug negative control, and the culture solution free of drug solution and bacterial solution was used as the blank control, wherein no bacteria grew in both solutions.

For another assay, the system named is Staphylococcus aureus. The assay is described as above. The settings on record: 20 hours. On the procedure: as §1, §2, §3, §4, §5, §6
Another assay concerns Escherichia coli. The assay is described as above. The settings on record: 20 hours. Here is the method: as §1, §2, §3, §4, §5, §6
For assay [1], the system named is Endothelial cell line HUVEC. Kind of assay: Inhibitory activity on cells, CellTiter-Glo viability, 72 h. The settings on record: Homo sapiens. An excerpt:
(§7) • HUVEC (purchased from Allcells Biological Technology (Shanghai) Co., Ltd.); UM-UC-3 (ATCC); LNCaP Clone FGC (ATCC); RM-1 (purchased from Nanjing Cobioer Biosciences Co., Ltd.) 2. Reagents • Endothelial cell complete medium (Allcells, H-004) • Medium RPMI1640 (ATCC, 30-2001) • Medium EMEM (ATCC, 30-2003) • Medium DMEM (Gibco, 12430-054) • Fetal bovine serum (Gibco, 10091148) • Penicillin-streptomycin double anti-body (Gibco, S110JV) • DPBS (Gibco, 14190-144) • CellTiter-Glo® kit (Promega, G7573) • Trypsin (0.25%), phenol red (Gibco, 25200-056) • DMSO (Sigma, D2650) 3. Instruments • Biological safety cabinet (Suzhou Antai Airtech Co., Ltd., BSC-1300A II) • Inverted microscope (Nikon, CKX53) • Automated cell counter (Life Technologies, countess II) • Multifunctional microplate reader (Biotek, H1FM) • Shaker (Hangzhou Allsheng Instruments Co., Ltd., OS-100) • GraphPad Prism 5.0 software • XLFIT 5.3 (Inforstack Shanghai Co., Ltd.) 4. Test Method
(§8) In this test method, the following experiments were carried out in a biological safety cabinet, and the specific steps are as follows: • (1) On the first day, the cells were seeded in a 96-well plate, and the previous medium was poured off. 5 mL of DPBS was added to wash the cells, and then removed by a pipette. Then, 1 mL of trypsin (0.25%) was added, and the plate was placed in a cell culture incubator at 37° C., 5% CO2 for digestion, and taken out after about 2 to 5 minutes. New corresponding medium was added, and pipetted to resuspend the cells evenly, and the cells were then counted with an automated cell counter.
(§9) The digestion was observed using an inverted microscope.
(§10) Regarding to HUVEC, the medium used was endothelial cell complete medium; regarding to UM-UC-3, the medium used was 89v % EMEM+10v % fetal bovine serum+1 v % penicillin-streptomycin double anti-body; regarding to LNcaP Clone FGC, the medium used was 89v % RPM11640+10v % fetal bovine serum+1 v % penicillin-streptomycin double anti-body; and regarding to RM-1, the medium used was 89v % DMEM+10v % fetal bovine serum+1v % penicillin-streptomycin double anti-body. • (2) HUVEC cells were seeded in columns 1 to 11 of a 96-well plate (Corning, Cat. No. 3610) at a density of 2000 cells per well in 100 μL of medium, and the medium free of cell was added to the wells of column 12. The other three types of cells were also seeded, wherein UM-UC-3 and RM-1 cells were seeded at a density of 3000 cells per well, and LNCap Clone FGC cells were seeded at a density of 5000 cells per well. Then, the plate was placed in an incubator at 37° C., 5% CO2 for 24 hours. • (3) On the second day, the compounds of the present invention and the reference drug nitroxoline (obtained according to the preparation method disclosed in the prior art) were diluted in gradient (2.5 folds, started at 100 μmol) to obtain 8 dose points (there were a total of 8 columns of wells; the first column of wells had the highest concentration, the concentration decreased in turn, and the last column of wells had the lowest concentration). 10 uL of the compound diluted in gradient was added to the 100 μL of cells in column 1 to column 10 with an 8-channel pipette. 10 μL of the corresponding medium containing 0.33v % DMSO was added to column 11 and column 12. The plate was incubated in an incubator at 37° C., 5% CO2 for 72 hours (note: column 11 was used as MAX well with cells and no compounds; and column 12 was used as MIN well with no cells and no compounds). • (4) After treating with the compounds of the present invention for 72 hours, the cell viability detection reagents in the above CellTiter-Glo® kit were added to the 96-well plate at 50 μL per well according to the instructions. […]
For orientation: In ATP-based viability assays light output follows the ATP content of the culture.

For assay [2], the system named is Prostate cancer cell line LNcaP Clone FGC. Kind of assay: Inhibitory activity on cancer cells, CellTiter-Glo viability, 72 h. Conditions: Homo sapiens.
Excerpt: as §7, §8, §9, §10

For assay [3], the system named is Mouse prostate cancer cell line RM-1. Described as above. The settings on record: RM-1, 72 h.
Excerpt: as §7, §8, §9, §10

The subject of assay [4] is Bladder cancer cell line UM-UC-3. The assay is described as above. Conditions: Homo sapiens, UMUC3, UM-UC-3, 72 h.
Excerpt: as §7, §8, §9, §10

Regarding `O=[N+]([O-])c1ccc(O)c2nccc(C3CCCC3)c12` [Example 24, 4-cyclopentyl-5-nitroquinolin-8-ol], the MIC50 was 32 µg/mL (≈ 124 µM) in the assay on Acinetobacter baumannii (clinical strains (carbapenem-resistant), CAMHB, read-out: Acinetobacter baumannii Clinical strain MIC50); 4 µg/mL (≈ 15.5 µM) with Staphylococcus aureus (clinical strains (methicillin-resistant and sensitive), CAMHB, read-out: Staphylococcus aureus Clinical strain MIC50); 32 µg/mL (≈ 124 µM) in the assay on Escherichia coli (clinical strains (carbapenem-resistant), CAMHB, read-out: Escherichia coli Clinical strain MIC50). The MIC90 came to 64 µg/mL (≈ 248 µM) in the assay on Acinetobacter baumannii (clinical strains (carbapenem-resistant), CAMHB, read-out: Acinetobacter baumannii Clinical strain MIC90); 4 µg/mL (≈ 15.5 µM) with Staphylococcus aureus (clinical strains (methicillin-resistant and sensitive), CAMHB, read-out: Staphylococcus aureus Clinical strain MIC90); 64 µg/mL (≈ 248 µM) in the assay with Escherichia coli (clinical strains (carbapenem-resistant), CAMHB, read-out: Escherichia coli Clinical strain MIC90). Besides, the minimal inhibitory concentration (MIC) is 32 µg/mL (≈ 124 µM) against Acinetobacter baumannii (standard strain ATCC19606, CAMHB); 4 µg/mL (≈ 15.5 µM) against Staphylococcus aureus (standard strain ATCC29213, CAMHB); 64 µg/mL (≈ 248 µM) in the assay with Escherichia coli (standard strain ATCC25922, CAMHB). Further, the IC50 in assay [1] was 1400 nM; in assay [2] it was 800 nM; in assay [3], 1000 nM; in assay [4] it was 1700 nM.
